Laboratory results reported in patent US11512053B2, “Arginine methyltransferase inhibitors and uses thereof” (priority 2013, dated 2022).
Where two headings read alike, the source gives them in different places.

Legend:
[1] = target: full-length human PRMT6 (Flag- and His-tagged) (Homo sapiens, UniProt Q96LA8); test: PRMT6 Biochemical Assay (3H-SAM Flashplate, peptide substrate); conditions: read-out: Biochemical IC50 PRMT6
Method in brief: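 Flag/His-tagged full-length human PRMT6 (1 nM) preincubated with compound 30 min at room temperature in Bicine pH 7.6 buffer, then reaction started with 3H-SAM 200 nM plus unlabeled SAM 250 nM and biotinylated H4 36-50 peptide (K44me1) 75 nM; 2% DMSO. Quenched with 400 uM cold SAM; labeled peptide captured on streptavidin Flashplate, counted; % inhibition vs DMSO and 1 mM SAH controls fit by 3- or 4-parameter curve.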

[2] = system: mono-methyl arginine in RKO cells; test: RKO Methylation Assay, In Cell Western (ICW) for detection of mono-methyl arginine and DNA content; type: cell-based; conditions: RKO cells; for EC30: Homo sapiens, RKO, 72 h, read-out: In Cell Western EC30
Method in brief: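 RKO cells were treated with compound for 72 hours at 37 °C, methanol-fixed and stained overnight at 4 °C with anti-mono-methyl arginine (1:200), with DRAQ5 for DNA. Odyssey 800/700 nm intensity ratio was normalized to DMSO and 20 μM reference-compound controls. EC30 from triplicate nine-point curves.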

[3] = single experiment or average of multiple experiments
[4] = 72 hours incubation, mono-methyl arginine signal normalised to DNA content, single experiment or average of multiple experiments
[5] = 72 hours compound incubation, mono-methyl arginine signal normalised to DNA content (DRAQ5), percent activation vs 20 μM reference compound

Chain of full-length human PRMT6 (Flag- and His-tagged) (Q96LA8 with tags, fused parts or gaps): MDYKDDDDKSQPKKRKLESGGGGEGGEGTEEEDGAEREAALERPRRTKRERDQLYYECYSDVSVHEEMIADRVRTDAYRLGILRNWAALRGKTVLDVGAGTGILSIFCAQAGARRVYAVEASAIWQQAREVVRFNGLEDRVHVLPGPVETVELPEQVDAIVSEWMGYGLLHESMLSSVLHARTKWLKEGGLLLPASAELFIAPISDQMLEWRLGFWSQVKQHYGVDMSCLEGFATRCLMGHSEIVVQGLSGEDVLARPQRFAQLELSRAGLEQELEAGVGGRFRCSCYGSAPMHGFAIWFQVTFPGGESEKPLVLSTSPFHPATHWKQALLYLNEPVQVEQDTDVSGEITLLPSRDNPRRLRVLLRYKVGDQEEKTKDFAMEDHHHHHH

Row | Compound | IC50 [1, 3] [nM] | EC30 [2, 4] [nM] | In Cell Western EC30 [2, 5] | EC30 [2, 5] [nM] | IC50 [1] [nM]
1 | CNCCN(C)Cc1c[nH]nc1C#Cc1cccc(OC)c1 [Compound 1] | 70 | – | – | – | –
2 | CNCCN(C)Cc1c[nH]nc1C#Cc1ccc(C(C)(C)C)cc1 [Compound 2] | 40 | – | – | – | –
3 | CNCCN(C)Cc1c[nH]nc1C#Cc1ccc(F)cc1 [Compound 4] | 20 | – | – | – | –
4 | CNCCN(C)Cc1c[nH]nc1/C=C/c1ccc(C(F)(F)F)cc1 [Compound 6] | 30 | – | – | – | –
5 | CNCCN(C)Cc1c[nH]nc1/C=C/c1ccc(OC)cc1 [Compound 7] | 20 | – | – | – | –
6 | Cc1ccc(/C=C/c2n[nH]cc2CN(C)CCN)cc1 [Compound 8] | 40 | – | – | – | –
7 | CN(CCN)Cc1c[nH]nc1C1=CCOCC1 [Compound 10] | 310 | > 20000 | C (“C” indicates an EC30 > 12.01 μM) | – | –
8 | COc1cc(/C=C/c2n[nH]cc2CN(C)CCN)cc(OC)c1 [Compound 11] | 50 | – | – | – | –
9 | CN(CCN)Cc1c[nH]nc1C1CC1 [Compound 12] | 1080 | – | – | – | –
10 | CN(CCN)Cc1c[nH]nc1/C=C/c1ccc(F)cc1F [Compound 13] | 10 | – | – | – | –
11 | CN(CCN)Cc1c[nH]nc1/C=C/c1cc(C(F)(F)F)cc(C(F)(F)F)c1 [Compound 14] | 930 | – | – | – | –
12 | CN(CCN)Cc1c[nH]nc1/C=C/c1cc(F)cc(F)c1 [Compound 15] | 40 | – | – | – | –
13 | CN(CCN)Cc1c[nH]nc1/C=C/c1cccc(C(F)(F)F)c1 [Compound 16] | 150 | – | – | – | –
14 | COc1cccc(/C=C/c2n[nH]cc2CN(C)CCN)c1 [Compound 17] | 50 | – | – | – | –
15 | CN(CCN)Cc1c[nH]nc1/C=C/c1ccc(C(F)(F)F)cc1 [Compound 18] | 10 | – | – | – | –
16 | COC/C=C/c1n[nH]cc1CN(C)CCN [Compound 19] | 170 | – | – | – | –
17 | CN(CCN)Cc1c[nH]nc1/C=C/c1cccc(F)c1 [Compound 20] | 20 | – | – | – | –
18 | CC(C)c1n[nH]cc1CN(C)CCN [Compound 21] | 670 | > 20000 | C (“C” indicates an EC30 > 12.01 μM) | – | –
19 | CN(CCN)Cc1c[nH]nc1C1CCCCC1 [Compound 22] | 20 | 1240 | A (“A” indicates an EC30 ≤ 3.00 μM) | – | –
20 | CN(CCN)Cc1c[nH]nc1CCc1ccc(F)cc1 [Compound 23, N^1-((3-(4-fluorophenethyl)-1H-pyrazol-4-yl)methyl)-N^1-methylethane-1,2-diamine] | 10 | 1610 | A (“A” indicates an EC30 ≤ 3.00 μM) | – | –
21 | CN(CCN)Cc1c[nH]nc1/C=C/Cc1ccccc1 [Compound 24] | 180 | 2400 | A (“A” indicates an EC30 ≤ 3.00 μM) | – | –
22 | CN(CCN)Cc1c[nH]nc1C1=CCCC1 [Compound 25] | 290 | 11800 | B (“B” indicates an EC30 of 3.01-12.00 μM) | – | –
23 | CN(CCN)Cc1c[nH]nc1C1CCC1 [Compound 26] | 510 | > 20000 | C (“C” indicates an EC30 > 12.01 μM) | – | –

Row | Compound | IC50 [1, 3] [nM] | EC30 [2, 4] [nM] | In Cell Western EC30 [2, 5] | EC30 [2, 5] [nM] | IC50 [1] [nM]
24 | CN(CCN)Cc1c[nH]nc1C(C)(C)C [Compound 27] | 2410 | > 20000 | C (“C” indicates an EC30 > 12.01 μM) | – | –
25 | CC(C)Cc1n[nH]cc1CN(C)CCN [Compound 28, N^1-((3-iso-butyl-1H-pyrazol-4-yl)methyl)-N^1-methylethane-1,2-diamine] | 80 | 11100 | – | 3010 to 12000 | –
26 | CCCc1n[nH]cc1CN(C)CCN [Compound 29] | 290 | > 20000 | C (“C” indicates an EC30 > 12.01 μM) | – | –
27 | Cc1n[nH]cc1CN(C)CCN [Compound 30] | 6590 | > 20000 | C (“C” indicates an EC30 > 12.01 μM) | – | –
28 | CN(CCN)Cc1c[nH]nc1C1CCCC1 [Compound 31] | 30 | > 20000 | C (“C” indicates an EC30 > 12.01 μM) | – | –
29 | CNCCN(C)Cc1c[nH]nc1C1CCN(C(=O)Cc2ccccc2)CC1 [Compound 32] | 20 | 2350 | A (“A” indicates an EC30 ≤ 3.00 μM) | – | –
30 | CN(CCN)Cc1n[nH]cc1C1CCCCC1 [Compound 33] | 20 | 3330 | B (“B” indicates an EC30 of 3.01-12.00 μM) | – | –
31 | CNCCN(C)Cc1c[nH]nc1C1CCN(C(=O)C(C)C)CC1 [Compound 34] | 30 | 1150 | A (“A” indicates an EC30 ≤ 3.00 μM) | – | –
32 | CC1CCC(c2c[nH]nc2CN(C)CCN)CC1 (centres unmarked) [Compound 35] | 10 | 730 | A (“A” indicates an EC30 ≤ 3.00 μM) | – | –
33 | CN(CCN)Cc1n[nH]cc1C1CCC(C)(C)CC1 [Compound 36] | 10 | 630 | A (“A” indicates an EC30 ≤ 3.00 μM) | – | –
34 | CC1CCC(c2n[nH]cc2CN(C)CCN)CC1 (centres unmarked) [Compound 37, N^1-methyl-N^1-((3-(4-methylcyclohexyl)-1H-pyrazol-4-yl)methyl)ethane-1,2-diamine] | 10 | 260 | A (“A” indicates an EC30 ≤ 3.00 μM) | – | –
35 | CN(CCN)Cc1c[nH]nc1C1CCC(C)(C)CC1 [Compound 38, N^1-((3-(4,4-dimethylcyclohexyl)-1H-pyrazol-4-yl)methyl)-N^1-methylethane-1,2-diamine] | 10 | 130 | A (“A” indicates an EC30 ≤ 3.00 μM) | – | –
36 | CNCCN(C)Cc1c[nH]nc1C1CCN(CC(C)C)CC1 [Compound 39, N^1-((3-(1-isobutylpiperidin-4-yl)-1H-pyrazol-4-yl)methyl)-N^1,N^2-dimethylethane-1,2-diamine] | 10 | 500 | A (“A” indicates an EC30 ≤ 3.00 μM) | – | –
37 | CNCCN(C)Cc1c[nH]nc1C1CCN(C(=O)CC(C)C)CC1 [Compound 40, 3-methyl-1-(4-(4-((methyl(2-(methylamino)ethyl)amino)methyl)-1H-pyrazol-3-yl)piperidin-1-yl)butan-1-one] | 20 | 870 | – | < 3000 | –
38 | CNCCN(C)Cc1c[nH]nc1C1CCN(C)CC1 [Compound 41] | – | > 20000 | C (“C” indicates an EC30 > 12.01 μM) | – | –
39 | CNCCN(C)Cc1c[nH]nc1C1CCNCC1 [Compound 42] | 20 | > 20000 | C (“C” indicates an EC30 > 12.01 μM) | – | –
40 | CNCCN(C)Cc1c[nH]nc1C1CCC(C)(C)C(C(=O)NCCCOC)C1 (centres unmarked) [Compound 93] | 71.9 | – | – | – | < 100
41 | CNCCN(C)Cc1c[nH]nc1[C@H]1CCC(C)(C)[C@@H](C(=O)NCCOC)C1 [Compound 268] | 141 | – | – | – | 101 to 1000
42 | CNCCN(C)Cc1c[nH]nc1[C@@H]1CCC(C)(C)[C@@H](C(=O)NCCOC)C1 [Compound 269] | 107 | – | – | – | 101 to 1000
43 | CNCCN(C)Cc1c[nH]nc1[C@H]1CCC(C)(C)[C@@H](C(=O)NCCCOC)C1 [Compound 270] | 149 | – | – | – | 101 to 1000
44 | CNCCN(C)Cc1c[nH]nc1[C@@H]1CCC(C)(C)[C@@H](C(=O)NCCCOC)C1 [Compound 271, (1S,5R)—N-(3-methoxypropyl)-2,2-dimethyl-5-[4-({methyl[2-(methylamino)ethyl]amino}methyl)-1H-pyrazol-3-yl]cyclohexane-1-carboxamide] | 121 | – | – | – | 101 to 1000
45 | CNCCN(C)Cc1c[nH]nc1C1CCC(C)(C)[C@H](OCCCOC)C1 (some centres unmarked) [Compound 272] | 73.9 | – | – | – | < 100
46 | CNCCN(C)Cc1c[nH]nc1C1CCC(C)(C)[C@H](OCC2CCOCC2)C1 (stereo partly drawn) [Compound 273, ({3-[(3R)-4,4-dimethyl-3-(oxan-4-ylmethoxy)cyclohexyl]-1H-pyrazol-4-yl}methyl)(methyl)[2-(methylamino)ethyl]amine] | 40.5 | – | – | – | < 100
